Source: paper PMC5601486, “Identification of 4-phenylquinolin-2(1H)-one as a specific allosteric inhibitor of Akt” (Scientific Reports, 2017)

Columns and labels:
MINK = assay: KINOMEscan; details: 50000 nM
Experimental: KINOMEscan™ selectivity screen
(§1) The assay was perfor med at DiscoveRx Corporation according the methods published previously5. Briefly, Kinase-tagged T7 phage strains were grown in parallel in an E. coli host derived from the BL21 strain. E. coli were grown to log-phase and infected with T7 phage from a frozen stock and incubated with shaking at 32°C until lysis (90-150 minutes). The kinases were produced in HEK-293 cells and subsequently tagged with DNA for qPCR detection. Streptavidin-coated magnetic beads were treated with biotinylated small molecule ligands to generate affinity resins for kinase
(§2) inhibitor or DMSO control was performed in polypropylene 384-well plates for 1 hr at room temperature. After wash with PBS buffer containing 0.05% Tween 20, the beads were incubated in elution buffer (PBS containing 0.05 % Tween 20 and 0.5 μM non-biotinylated affinity ligand) for 30 minutes at room temperature. The kinase concentration in the eluates was measured by qPCR.

S6K1 = assay: KINOMEscan; details: 50000 nM
Experimental: KINOMEscan™ selectivity screen
as §1, §2

GCN2(Kin.Dom.2,S808G) = assay: KINOMEscan; details: 50000 nM
Experimental: KINOMEscan™ selectivity screen
as §1, §2

EGFR = assay: KINOMEscan; details: 50000 nM
Experimental: KINOMEscan™ selectivity screen
as §1, §2

AKT3 = assay: KINOMEscan; details: 50000 nM
Experimental: KINOMEscan™ selectivity screen
as §1, §2

over 380 human kinases = assay: KINOMEscan selectivity screen (whole panel); details: 50000 nM; 403 non-mutant kinases
Experimental: KINOMEscan™ selectivity screen
as §1, §2

BLK = assay: KINOMEscan; details: 50000 nM
Experimental: KINOMEscan™ selectivity screen
(§3) Briefly, Kinase-tagged T7 phage strains were grown in parallel in an E. coli host derived from the BL21 strain. E. coli were grown to log-phase and infected with T7 phage from a frozen stock and incubated with shaking at 32°C until lysis (90-150 minutes). The kinases were produced in HEK-293 cells and subsequently tagged with DNA for qPCR detection. Streptavidin-coated magnetic beads were treated with biotinylated small molecule ligands to generate affinity resins for kinase
as §2

YANK2 = assay: KINOMEscan; details: 50000 nM
Experimental: KINOMEscan™ selectivity screen
as §3, §2

PRKX = assay: KINOMEscan; details: 50000 nM
Experimental: KINOMEscan™ selectivity screen
as §1, §2

DLK = assay: KINOMEscan; details: 50000 nM
Experimental: KINOMEscan™ selectivity screen
as §1, §2

FLT1 = assay: KINOMEscan; details: 50000 nM
Experimental: KINOMEscan™ selectivity screen
as §1, §2

CSNK1G1 = assay: KINOMEscan; details: 50000 nM
Experimental: KINOMEscan™ selectivity screen
as §1, §2

[1] = system: RSK2(Kin.Dom.2-C-terminal); assay: KINOMEscan; details: 50000 nM
Experimental: KINOMEscan™ selectivity screen
as §1, §2

CDK4-cyclinD3 = assay: KINOMEscan; details: 50000 nM
Experimental: KINOMEscan™ selectivity screen
as §3, §2

PIK3CA(H1047L) = assay: KINOMEscan; details: 50000 nM
Experimental: KINOMEscan™ selectivity screen
as §1, §2

AKT1 = assay: KINOMEscan; details: 50000 nM
Experimental: KINOMEscan™ selectivity screen
as §1, §2

RIOK2 = assay: KINOMEscan; details: 50000 nM
Experimental: KINOMEscan™ selectivity screen
as §1, §2

[2] = system: EGFR(L747-E749del, A750P); assay: KINOMEscan; details: 50000 nM
Experimental: KINOMEscan™ selectivity screen
as §1, §2

PKC = assay: Western blot of PKC phosphorylation; format: cell-based, Mouse; details: Neuro 2A cells
Experimental: Neuro 2A cells were seeded in 12-well plates in DMEM containing 5% FBS for 24 hr.
After overnight serum starvation (in 0% FBS DMEM), cells were incubated for 30 min at 37 °C with G7 or LY294002 or Torin 1 (Sigma Aldrich) at various concentrations, or DMSO control. IGF-1 was added to each well at a final concentration of 100 ng/mL. After 30-min incubation cells were washed with cold PBS and lysed with 50 µL lysis buffer containing 1% Triton X-100 and protease/phosphatase inhibitors (Cell Signaling Technology) or RIPA buffer (Santa Cruz Biotech). Samples were electrophoresed in 4–12% Bis-Tris gels (Life Technologies) at 150 V using MOPS SDS running buffer. Proteins were transferred electrophoretically to a PVDF or nitrocellulose membrane. For detection of cleaved […]
caspase 3 a Trans-Blot Turbo Transfer System (Bio-Rad, 25 V for 25 min) with PVDF membrane were used. […]
anti- GAPDH (14C10) antibody (#2118) (all antibodies were from Cell Signaling Technology unless indicated, 1:1000 dilution was used) at 4°C overnight, washed three times with TBS-T, then incubated with peroxidase-conjugated secondary antibody (Sigma-Aldrich) for 1 hr at room temperature. […] Band intensity was quantitated using Kodak 1D imaging analysis software. […]

EGFR(G719C) = assay: KINOMEscan; details: 50000 nM
Experimental: KINOMEscan™ selectivity screen
as §3, §2

PRKCH = assay: KINOMEscan; details: 50000 nM
Experimental: KINOMEscan™ selectivity screen
(§4) The kinases were produced in HEK-293 cells and subsequently tagged with DNA for qPCR detection. Streptavidin-coated magnetic beads were treated with biotinylated small molecule ligands to generate affinity resins for kinase
as §2

ULK1 = assay: KINOMEscan; details: 50000 nM
Experimental: KINOMEscan™ selectivity screen
as §1, §2

MEK1 = assay: KINOMEscan; details: 50000 nM
Experimental: KINOMEscan™ selectivity screen
as §3, §2

p38-gamma = assay: KINOMEscan; details: 50000 nM
Experimental: KINOMEscan™ selectivity screen
as §3, §2

EPHA2 = assay: KINOMEscan; details: 50000 nM
Experimental: KINOMEscan™ selectivity screen
as §3, §2

KIT(D816H) = assay: KINOMEscan; details: 50000 nM
Experimental: as §3, §2

CAMK1B = assay: KINOMEscan; details: 50000 nM
Experimental: KINOMEscan™ selectivity screen
The assay was perfor med at DiscoveRx Corporation according the methods published previously5. […] The kinases were produced in HEK-293 cells and subsequently tagged with DNA for qPCR detection. Streptavidin-coated magnetic beads were treated with biotinylated small molecule ligands to generate affinity resins for kinase
as §2

TNIK = assay: KINOMEscan; details: 50000 nM
Experimental: KINOMEscan™ selectivity screen
as §3, §2

MEK2 = assay: KINOMEscan; details: 50000 nM
Experimental: KINOMEscan™ selectivity screen
as §1, §2

LATS1 = assay: KINOMEscan; details: 50000 nM
Experimental: KINOMEscan™ selectivity screen
as §1, §2

STK16 = assay: KINOMEscan; details: 50000 nM
Experimental: KINOMEscan™ selectivity screen
as §4, §2

LZK = assay: KINOMEscan; details: 50000 nM
Experimental: KINOMEscan™ selectivity screen
as §3, §2

YES = assay: KINOMEscan; details: 50000 nM
Experimental: KINOMEscan™ selectivity screen
as §1, §2

EPHA4 = assay: KINOMEscan; details: 50000 nM
Experimental: KINOMEscan™ selectivity screen
as §3, §2

RAF1 = assay: KINOMEscan; details: 50000 nM
Experimental: KINOMEscan™ selectivity screen
as §1, §2

BTK = assay: KINOMEscan; details: 50000 nM
Experimental: KINOMEscan™ selectivity screen
as §1, §2

ACVR2A = assay: KINOMEscan; details: 50000 nM
Experimental: KINOMEscan™ selectivity screen
as §1, §2

SMILES: Oc1cc(-c2ccccc2)c2ccccc2n1 [G7, 4-phenylquinolin-2(1H)-one]
- Percent Control (MINK): 77%
- Percent Control (S6K1): 96%
- Percent Control (GCN2(Kin.Dom.2,S808G)): 99%
- Percent Control (EGFR): 89%
- Percent Control (AKT3): 100%
- Number of Hits S(1) (over 380 human kinases): 0
- Number of Hits S(10) (over 380 human kinases): 2
- Number of Hits S(35) (over 380 human kinases): 14
- Selectivity Score S(10) (over 380 human kinases): 0.005
- Selectivity Score S(35) (over 380 human kinases): 0.035
- Percent Control (BLK): 79%
- Percent Control (YANK2): 100%
- Percent Control (PRKX): 76%
- Percent Control (DLK): 78%
- Percent Control (FLT1): 81%
- Percent Control (CSNK1G1): 89%
- Percent Control [1]: 100%
- Percent Control (CDK4-cyclinD3): 71%
- Percent Control (PIK3CA(H1047L)): 89%
- Percent Control (AKT1): 100%
- Percent Control (RIOK2): 83%
- Percent Control [2]: 89%
- phosphorylation (activation status) of PKC (PKC): did not alter
- Percent Control (EGFR(G719C)): 79%
- Percent Control (PRKCH): 75%
- Percent Control (ULK1): 74%
- Percent Control (MEK1): 69%
- Percent Control (p38-gamma): 100%
- Percent Control (EPHA2): 100%
- Percent Control (KIT(D816H)): 84%
- Percent Control (CAMK1B): 52%
- Percent Control (TNIK): 60%
- Percent Control (MEK2): 72%
- Percent Control (LATS1): 87%
- Percent Control (STK16): 75%
- Percent Control (LZK): 94%
- Percent Control (YES): 93%
- Percent Control (EPHA4): 93%
- Percent Control (RAF1): 95%
- Percent Control (BTK): 50%
- Percent Control (ACVR2A): 100%
